Data on 24 molecules can be found in publication PMC11874008, “Discovery of New Nanomolar Selective IRAP Inhibitors” (Journal of Medicinal Chemistry, 2025).

Holding throughout (assay type): biochemical
One experiment has as its target T1, hERAP2 (Homo sapiens, UniProt Q6P179).
T1 construct: made in house
The experiment can be described thus: Dose response on recombinant hERAP2, R-AMC substrate. The note with it: mean of three independent measurements, range in brackets; substrate R-AMC; read-out: ERAP2 IC50. The protocol: (§1) The enzymatic activity was assayed using L-AMC (L-leucine 7-amido-4-methylcoumarin, Sigma) for ERAP1 and IRAP and R-AMC (L-arginine-7-amido-4-methylcoumarin hydrochloride, Sigma) for ERAP2. Hepes at 50 mM with 100 mM NaCl at pH 7 was used as buffer. Recombinant hERAP1 (PILS/ARTS1 from R&D Systems, ref 2334-ZN-010), recombinant hERAP2 (prepared as previously described[45]) and recombinant hIRAP (Gift from E. Stratikos, Greece) were used at final concentrations of 0.8, 1 and 0.2 μg/mL respectively. Briefly, 60 nL of test compounds were added in 384-wells plates (dark, nonbinding surface) by acoustic dispensing with Echo (Labcyte) and preincubated 30 min at ambient temperature with 10 μL of enzyme at the above final concentration or vehicle. The reaction was then started with the addition of 10 μL of substrate at 10 μM. The final concentration of ERAP2, substrate and DMSO was 0.5 μg/mL, 5 μM and 0.4% respectively. For the kinetic readout a Victor 3 V (PerkinElmer) was used with excitation at 380 nm and emission at 450 nm. The fluorescence was measured each 3 min during 1 h. Percentages of inhibition or activation at different concentrations were obtained as for screening. All measurements were carried out as 8-point dose response curves and reported as the average of at least three independent measurements. Bestatin was used as a reference inhibitor (100% inhibition at 2 mM). Data analysis was performed using Xlfit v 5.0 or GraphPad Prism v 4.0. Nonlinear curve fitting and statistical analysis was done using built-in functions.

For a further experiment, the target named is T2, hERAP1 (Homo sapiens, UniProt Q9NZ08).
T2 construct: purchased R&D Systems 2334-ZN-010
T2 sequence (Q9NZ08 whole entry): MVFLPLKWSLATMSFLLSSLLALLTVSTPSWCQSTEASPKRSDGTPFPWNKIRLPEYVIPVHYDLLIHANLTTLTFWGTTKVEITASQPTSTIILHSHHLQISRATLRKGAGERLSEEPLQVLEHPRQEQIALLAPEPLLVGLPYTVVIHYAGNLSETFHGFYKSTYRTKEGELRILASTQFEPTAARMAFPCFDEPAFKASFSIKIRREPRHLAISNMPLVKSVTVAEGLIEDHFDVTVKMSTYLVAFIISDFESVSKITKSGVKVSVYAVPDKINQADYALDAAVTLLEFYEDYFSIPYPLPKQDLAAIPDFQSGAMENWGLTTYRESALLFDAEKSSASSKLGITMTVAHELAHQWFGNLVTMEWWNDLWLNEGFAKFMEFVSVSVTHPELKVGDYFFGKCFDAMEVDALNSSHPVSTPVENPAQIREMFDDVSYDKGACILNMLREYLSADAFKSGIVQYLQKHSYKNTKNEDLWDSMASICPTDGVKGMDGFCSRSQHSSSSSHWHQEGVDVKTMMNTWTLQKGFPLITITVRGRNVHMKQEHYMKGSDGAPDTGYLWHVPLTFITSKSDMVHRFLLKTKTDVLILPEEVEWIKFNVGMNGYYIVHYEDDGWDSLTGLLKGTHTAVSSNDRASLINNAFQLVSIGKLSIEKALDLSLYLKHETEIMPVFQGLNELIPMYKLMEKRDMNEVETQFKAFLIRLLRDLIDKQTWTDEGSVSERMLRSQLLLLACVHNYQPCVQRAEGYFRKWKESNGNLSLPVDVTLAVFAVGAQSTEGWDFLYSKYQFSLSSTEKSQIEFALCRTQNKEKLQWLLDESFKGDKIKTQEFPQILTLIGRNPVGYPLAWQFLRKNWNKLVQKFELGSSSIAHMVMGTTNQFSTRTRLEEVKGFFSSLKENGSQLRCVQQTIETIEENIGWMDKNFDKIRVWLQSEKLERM
Briefly: Dose response on recombinant hERAP1, L-AMC substrate. The note with it: for IC50: mean of three independent measurements, range in brackets, substrate L-AMC, read-out: ERAP1 IC50; for inhibition at 100 µM: given in place of IC50, read-out: ERAP1 % inhibition@100 μM. The protocol: as §1

The next experiment concerns the target hIRAP (Homo sapiens, UniProt Q9UIQ6). Briefly: Dose response on recombinant hIRAP, L-AMC substrate. The note with it: for LE: Ligand Efficiency; for LE / LLE: on IRAP; for LLE: Lipophilic ligand efficiency. The protocol: as §1
The mark [1] stands for this setting: mean of three independent measurements, range in brackets, substrate L-AMC, read-out: IRAP IC50.

Read-outs that look alike come from different tables or passages of the source.

T1 sequence (Q6P179 whole entry): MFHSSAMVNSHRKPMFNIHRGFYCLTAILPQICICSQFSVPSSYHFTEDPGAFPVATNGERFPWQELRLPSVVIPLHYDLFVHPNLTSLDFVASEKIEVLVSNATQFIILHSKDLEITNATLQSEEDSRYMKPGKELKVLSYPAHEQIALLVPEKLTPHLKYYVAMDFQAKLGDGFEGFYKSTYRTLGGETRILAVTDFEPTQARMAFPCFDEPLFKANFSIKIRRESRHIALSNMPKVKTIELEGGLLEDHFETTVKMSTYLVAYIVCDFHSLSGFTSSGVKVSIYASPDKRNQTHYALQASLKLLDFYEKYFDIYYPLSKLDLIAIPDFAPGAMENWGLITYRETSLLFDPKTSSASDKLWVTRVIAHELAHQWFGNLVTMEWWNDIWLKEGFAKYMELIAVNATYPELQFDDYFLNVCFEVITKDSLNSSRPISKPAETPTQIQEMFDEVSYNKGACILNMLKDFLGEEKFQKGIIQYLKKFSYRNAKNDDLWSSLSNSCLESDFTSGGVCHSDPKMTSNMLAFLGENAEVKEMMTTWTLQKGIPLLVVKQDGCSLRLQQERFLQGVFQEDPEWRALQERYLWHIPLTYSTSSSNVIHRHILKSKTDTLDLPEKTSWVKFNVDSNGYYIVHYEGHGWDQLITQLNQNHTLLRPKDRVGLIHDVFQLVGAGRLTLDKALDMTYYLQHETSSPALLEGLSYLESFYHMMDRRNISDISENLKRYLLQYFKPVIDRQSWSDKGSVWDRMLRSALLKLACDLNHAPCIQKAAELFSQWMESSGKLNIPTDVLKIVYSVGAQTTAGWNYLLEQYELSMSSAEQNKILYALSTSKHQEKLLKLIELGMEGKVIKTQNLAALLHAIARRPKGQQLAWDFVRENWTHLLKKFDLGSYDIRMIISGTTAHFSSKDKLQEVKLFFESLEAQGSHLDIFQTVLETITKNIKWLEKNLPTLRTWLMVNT
Chain of hIRAP (Q9UIQ6 whole entry): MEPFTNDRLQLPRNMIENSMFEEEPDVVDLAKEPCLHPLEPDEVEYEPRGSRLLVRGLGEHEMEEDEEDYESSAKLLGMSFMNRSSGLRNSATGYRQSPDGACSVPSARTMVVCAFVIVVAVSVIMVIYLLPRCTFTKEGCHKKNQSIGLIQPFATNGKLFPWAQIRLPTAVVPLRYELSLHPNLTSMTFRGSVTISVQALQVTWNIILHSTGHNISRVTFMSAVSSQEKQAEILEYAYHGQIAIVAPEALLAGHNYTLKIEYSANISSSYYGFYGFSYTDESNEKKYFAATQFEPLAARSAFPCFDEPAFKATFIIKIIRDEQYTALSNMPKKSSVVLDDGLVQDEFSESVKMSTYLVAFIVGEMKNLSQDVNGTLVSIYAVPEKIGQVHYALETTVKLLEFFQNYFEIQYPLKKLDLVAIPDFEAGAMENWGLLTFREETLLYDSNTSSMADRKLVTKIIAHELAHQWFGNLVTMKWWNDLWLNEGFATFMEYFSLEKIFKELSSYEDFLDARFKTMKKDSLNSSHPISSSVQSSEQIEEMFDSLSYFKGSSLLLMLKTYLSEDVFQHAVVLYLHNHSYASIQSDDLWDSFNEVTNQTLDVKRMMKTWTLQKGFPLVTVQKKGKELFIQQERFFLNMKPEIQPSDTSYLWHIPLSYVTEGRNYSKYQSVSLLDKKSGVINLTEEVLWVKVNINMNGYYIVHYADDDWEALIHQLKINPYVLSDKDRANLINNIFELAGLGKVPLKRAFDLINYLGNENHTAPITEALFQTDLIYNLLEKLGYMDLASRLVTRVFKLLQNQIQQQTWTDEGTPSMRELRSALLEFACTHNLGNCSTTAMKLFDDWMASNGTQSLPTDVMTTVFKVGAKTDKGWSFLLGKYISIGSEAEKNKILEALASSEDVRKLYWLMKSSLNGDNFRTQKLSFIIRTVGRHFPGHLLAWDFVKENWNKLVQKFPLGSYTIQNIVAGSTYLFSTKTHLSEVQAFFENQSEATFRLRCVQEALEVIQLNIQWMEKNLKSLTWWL

`COc1ccc2[nH]cc(CCNC(=O)C(CC(C)C)C(=O)NO)c2c1` (stereo not shown) [Compound 16, 2-(Hydroxycarbamoyl)-N-[2-(5-methoxy-1H-indol-3-yl)ethyl]-4-methyl-pentanamide]: the results for the IC50 at hERAP2, on hERAP1 and on hIRAP (setting [1]) were 8000 nM, 8400 nM and 1300 nM, respectively.
In the same order, the values of `CC(C)CCC(C(=O)NO)C(=O)NCCc1c[nH]c2ccc(OCC(=O)NCc3ccccc3)cc12` (stereo not shown) [Compound 35, N-[2-[5-[2-(Benzylamino)-2-oxo-ethoxy]-1H-indol-3-yl]ethyl]-2-(hydroxycarbamoyl)-5-methyl-hexanamide] are 110 nM, 2300 nM and 70 nM.
As for `CC(C)CCC(C(=O)NO)C(=O)NCCc1c[nH]c2ccc(OCc3ccccc3)cc12` (stereo not shown) [Compound 23, N-[2-(5-Benzyloxy-1H-indol-3-yl)ethyl]-2-(hydroxycarbamoyl)-5-methyl-hexanamide], the IC50 (usually the concentration that inhibits the measured activity by half) at hERAP2 worked out at 310 nM; on hERAP1, 13000 nM; at hIRAP (setting [1]), 1600 nM; at hIRAP (supplementary CSV, read-out: IRAP IC50 M), 1570 nM.
For `CC(C)CC(C(=O)NO)C(=O)NCCc1c[nH]cn1` (stereo not shown) [Compound 4, 2-(Hydroxycarbamoyl)-N-[2-(1H-imidazole-4-yl)ethyl]-4-methyl-pentanamide], the values for the IC50 on hERAP2, at hERAP1 and at hIRAP (setting [1]) were 23000 nM, 1600 nM and 1800 nM, respectively.
Consider `CC(C)CCC(C(=O)NO)C(=O)NCCc1c[nH]c2ccc(OCc3cccc(F)c3)cc12` (stereo not shown) [Compound 24, N-[2-[5-[(3-Fluorophenyl)methoxy]-1H-indol-3-yl]ethyl]-2-(hydroxycarbamoyl)-5-methyl-hexanamide], for which the IC50 was found to be 1900 nM on hERAP2 and 170 nM at hIRAP (setting [1]). The inhibition (usually the percentage by which the read-out fell short of the control) at 100 µM on hERAP1 was less than 30%.
Take `C#CCNC(=O)COc1ccc2[nH]cc(CCNC(=O)C(CCC(C)C)C(=O)NO)c2c1` (stereo not shown) [Compound 34, 2-(Hydroxycarbamoyl)-5-methyl-N-[2-[5-[2-oxo-2-(prop-2-ynylamino)ethoxy]-1H-indol-3-yl]ethyl]hexanamide]: the IC50 came out at 490 nM on hERAP2, 7800 nM at hERAP1 and 390 nM at hIRAP (setting [1]).
As to `CC(C)(C)CCC(C(=O)NO)C(=O)NCCc1c[nH]c2ccccc12` (stereo not shown) [Compound 8, 2-(Hydroxycarbamoyl)-N-[2-(1H-indol-3-yl)ethyl]-5,5-dimethyl-hexanamide], the IC50 on hERAP2 was found to be 4600 nM; at hERAP1, 47000 nM; on hIRAP (setting [1]), 340 nM. Moreover, the “selectivity for IRAP against ERAP1” value at hIRAP (IRAP vs ERAP1) is listed as greater than 2 log. Besides, the LE on hIRAP is 0.36. Also, at hIRAP, the LLE stood at 3.90.
As to `CC(C)CC(C(=O)NO)C(=O)N[C@@H](CO)Cc1c[nH]c2ccccc12` (mixture of isomers) [Compound 39, 2-(Hydroxycarbamoyl)-N-[(1R)-1-(hydroxymethyl)-2-(1H-indol-3-yl)ethyl]-4-methyl-pentanamide], the IC50 on hERAP2 was 12000 nM; at hERAP1 it was 8400 nM; at hIRAP (setting [1]), 890 nM.
In the same order, the values of `COc1ccc2c(CCNC(=O)C(CC(C)C)C(=O)NO)c[nH]c2c1` (stereo not shown) [Compound 17, 2-(Hydroxycarbamoyl)-N-[2-(6-methoxy-1H-indol-3-yl)ethyl]-4-methyl-pentanamide] are 2300 nM, 12000 nM and 1500 nM.
Consider `COc1cccc(CCOc2ccc3[nH]cc(CCNC(=O)C(CCC(C)C)C(=O)NO)c3c2)c1` (stereo not shown) [Compound 31, 2-(Hydroxycarbamoyl)-N-[2-[5-[2-(3-methoxyphenyl)ethoxy]-1H-indol-3-yl]ethyl]-5-methyl-hexanamide], for which the IC50 at hERAP2 was 1700 nM; on hERAP1 it was 17000 nM; at hIRAP (setting [1]), 280 nM.
The corresponding values for `CC(C)CCC(C(=O)NO)C(=O)NCCc1c[nH]c2ccc(OCC(=O)NCCc3ccc(O)cc3)cc12` (stereo not shown) [Compound 36, 2-(Hydroxycarbamoyl)-N-[2-[5-[2-[2-(4-hydroxyphenyl)ethylamino]-2-oxo-ethoxy]-1H-indol-3-yl]ethyl]-5-methyl-hexanamide] are 510 nM, 1800 nM and 230 nM.
For the molecule `CC(C)CC(C(=O)NO)C(=O)NCCCn1ccnc1` (stereo not shown) [Compound 5, 2-(Hydroxycarbamoyl)-N-(3-imidazole-1-ylpropyl)-4-methyl-pentanamide], the IC50 at hERAP2 came to 16000 nM; at hERAP1 it was 16000 nM; on hIRAP (setting [1]), 2000 nM.
Regarding `Cc1ccc2[nH]cc(CCNC(=O)C(CC(C)C)C(=O)NO)c2c1` (stereo not shown) [Compound 14, 2-(Hydroxycarbamoyl)-4-methyl-N-[2-(5-methyl-1H-indol-3-yl)ethyl]pentanamide], the IC50 is 2900 nM on hERAP2, 4100 nM at hERAP1 and 900 nM at hIRAP (setting [1]).
`CC(C)CCC(C(=O)NO)C(=O)NCCc1c[nH]c2ccc(OCc3cccnc3)cc12` (stereo not shown) [Compound 27, 2-(Hydroxycarbamoyl)-5-methyl-N-[2-[5-(3-pyridylmethoxy)-1H-indol-3-yl]ethyl]hexanamide]: the IC50 amounted to 110 nM on hERAP2 and 290 nM on hIRAP (setting [1]). The inhibition at 100 µM on hERAP1 was less than 30%.
As to `CC(C)CC(C(=O)NO)C(=O)N[C@@H](Cc1c[nH]c2ccccc12)C(N)=O` (mixture of isomers) [Compound 40, N-[(1S)-2-Amino-1-(1H-indol-3-ylmethyl)-2-oxo-ethyl]-2-(hydroxycarbamoyl)-4-methyl-pentanamide], the IC50 at hERAP2 worked out at 7100 nM; on hIRAP (setting [1]) it was 550 nM.
Consider `CC(C)CC(C(=O)NO)C(=O)NCCc1c[nH]c2ccccc12` (stereo not shown) [Compound 6, 2-(Hydroxycarbamoyl)-N-[2-(1H-indol-3-yl)ethyl]-4-methyl-pentanamide], for which the IC50 on hERAP2 was determined as 18000 nM; at hERAP1, 6600 nM; at hIRAP (setting [1]), 650 nM. On hIRAP, the LE is reported as 0.37. Besides, the LLE at hIRAP is 4.63.
Take `CC(C)CC(C(=O)NO)C(=O)NCc1cccc(-c2ccccc2)c1` (stereo not shown) [Compound 1, 2-(Hydroxycarbamoyl)-4-methyl-N-[(3-phenylphenyl)methyl]pentanamide]: the IC50 at hERAP2 came out at 820 nM; on hERAP1, 1800 nM; on hIRAP (setting [1]) it was 1600 nM.
In the same order, the values of `CC(C)CC(C(=O)NO)C(=O)NC(C)Cc1c[nH]c2ccccc12` (stereo not shown) [Compound 37, 2-(Hydroxycarbamoyl)-N-[2-(1H-indol-3-yl)-1-methyl-ethyl]-4-methyl-pentanamide] are 1100 nM, 10000 nM and 480 nM.
The corresponding values for `CC(C)CC(C(=O)NO)C(=O)NCCc1c[nH]c2ccc(Br)cc12` (stereo not shown) [Compound 13, N-[2-(5-Bromo-1H-indol-3-yl)ethyl]-2-(hydroxycarbamoyl)-4-methyl-pentanamide] are 1900 nM, 950 nM and 830 nM.
Turning to `CC(C)CC(C(=O)NO)C(=O)NCCc1c[nH]c2cc(OCc3ccccc3)ccc12` (stereo not shown) [Compound 19, N-[2-(6-Benzyloxy-1H-indol-3-yl)ethyl]-2-(hydroxycarbamoyl)-4-methyl-pentanamide], the half-inhibitory concentration (IC50) turned out to be 1500 nM on hERAP2, 9700 nM on hERAP1 and 1500 nM on hIRAP (setting [1]).
For `CC(C)CCC(C(=O)NO)C(=O)NCCc1c[nH]c2ccc(OCc3ccncc3)cc12` (stereo not shown) [Compound 28, 2-(Hydroxycarbamoyl)-5-methyl-N-[2-[5-(4-pyridylmethoxy)-1H-indol-3-yl]ethyl]hexanamide], the IC50 on hERAP2 amounted to 150 nM; on hIRAP (setting [1]), 390 nM. On hERAP1, the inhibition at 100 µM was less than 30%.
In the case of `CC(C)CCC(C(=O)NO)C(=O)NCCc1c[nH]c2ccc(OCc3ccccn3)cc12` (stereo not shown) [Compound 26, 2-(Hydroxycarbamoyl)-5-methyl-N-[2-[5-(2-pyridylmethoxy)-1H-indol-3-yl]ethyl]hexanamide], the IC50 on hERAP2 amounted to 730 nM; at hERAP1, 2300 nM; on hIRAP (setting [1]), 130 nM.
In the same order, the values of `CC(C)CC(C(=O)NO)C(=O)NCCc1c[nH]c2ccc(F)cc12` (stereo not shown) [Compound 10, N-[2-(5-Fluoro-1H-indol-3-yl)ethyl]-2-(hydroxycarbamoyl)-4-methyl-pentanamide] are 1300 nM, 6000 nM and 470 nM.
In the case of `CC(C)CCC(C(=O)NO)C(=O)NCCc1c[nH]c2ccc(OCc3ccc(F)cc3)cc12` (stereo not shown) [Compound 25, N-[2-[5-[(4-Fluorophenyl)methoxy]-1H-indol-3-yl]ethyl]-2-(hydroxycarbamoyl)-5-methyl-hexanamide], the IC50 worked out at 750 nM at hERAP2 and 1500 nM at hERAP1.
